{"source": "paper PMC11677465", "about": "“Development of a PET Probe Targeting Bromodomain and Extra-Terminal Proteins for In Vitro and In Vivo Visualization” (Pharmaceuticals, 2024)", "molecular_target": "T1, BRD4 (Homo sapiens, UniProt O60885)", "T1 construct": "BD1 (BRD4(1), first bromodomain)", "assay": "BROMOscan bromodomain competition binding assay with qPCR readout"}
{"compound": "COc1cc2c(cc1-c1c(C)nn(C)c1C)ncc1nc(C)n([C@H](C)c3ccccc3)c12", "note": "[YL10, (R)-8-methoxy-2-methyl-1-(1-phenylethyl)-7-(1,3,5-trimethyl-1H-pyrazol-4-yl)-1H-imidazo[4,5-c]quinoline]", "values": [{"measurement": "Kd", "value": 480, "unit": "nM"}]}
